Measurements from patent publication US11939314B2, “Quinolin-2-one derivatives” (MERCK PATENT GMBH, priority 2016, dated 2024).

What was measured:
PDGFRalpha(V561D) = target: T1, PDGFRalpha(V561D) (Homo sapiens, UniProt P16234, V561D); experiment: PDGFRalpha(V561D) assay; format: biochemical; conditions: recombinant human PDGFRalpha aa 550-end, 200 μM ATP, 1.4E-06 means 1.4×10^−6, read-out: Inhibition (IC50) of PDGFRα (V561D)
T1 construct: recombinant human PDGFRalpha, amino acids 550end containing the V561 D mutation; 6His (N)
Experimental: (§1) PDGFRalpha(V561D) (N-terminal 6His-tagged, recombinant human PDGFRalpha, amino acids 550end containing the V561 D mutation) is incubated with 8 mM MOPS pH 7.0, 0.2 mM EDTA, 250 μM GGMEDIYEFMGGKKK, 10 mM MgAcetate and [gamma-33P-ATP] (specific activity approx. 500 cpm/pmol, concentration 200 μM). The reaction is initiated by the addition of the MgATP mix. After incubation for 40 minutes at room temperature, the reaction is stopped by the addition of 3% phosphoric acid solution. 10 μL of the reaction is then spotted onto a P30 filtermat and washed three times for 5 minutes in 75 mM phosphoric acid and once in methanol prior to drying and scintillation counting.

c-Kit(V654A) = target: T2, c-Kit(V654A) (Homo sapiens, UniProt P10721, V654A); experiment: c-Kit(V654A) assay; format: biochemical; conditions: recombinant human c-Kit aa 544-end, 200 μM ATP, 1.4E-06 means 1.4×10^−6, read-out: Inhibition (IC50) of c-KIT (V654A)
T2 construct: amino acids 544-end containing the V654A mutation; GST (N)
Experimental: as §1, with “c-Kit(V654A)” for “PDGFRalpha(V561D)”, “GST-tagged,” for “6His-tagged,”, “c-Kit,” for “PDGFRalpha,”, “544-end” for “550end”, “V654A” for “V561 D”

T1 sequence (P16234 550-1089 V561D): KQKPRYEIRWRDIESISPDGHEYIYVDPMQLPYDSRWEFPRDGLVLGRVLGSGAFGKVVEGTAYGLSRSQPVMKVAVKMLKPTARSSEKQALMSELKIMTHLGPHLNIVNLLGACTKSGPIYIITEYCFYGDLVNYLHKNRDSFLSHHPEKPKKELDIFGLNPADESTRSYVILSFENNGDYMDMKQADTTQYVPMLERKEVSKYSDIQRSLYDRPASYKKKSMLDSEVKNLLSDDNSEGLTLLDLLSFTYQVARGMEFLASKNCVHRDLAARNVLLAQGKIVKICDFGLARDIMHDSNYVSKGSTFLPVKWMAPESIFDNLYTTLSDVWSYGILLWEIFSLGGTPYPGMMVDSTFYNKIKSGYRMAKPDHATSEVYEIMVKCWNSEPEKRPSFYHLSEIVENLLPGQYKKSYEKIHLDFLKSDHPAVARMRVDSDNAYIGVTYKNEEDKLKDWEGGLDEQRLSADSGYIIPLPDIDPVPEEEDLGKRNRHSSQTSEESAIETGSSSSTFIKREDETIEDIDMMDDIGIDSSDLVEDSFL
T2 sequence (P10721 544-976 V654A): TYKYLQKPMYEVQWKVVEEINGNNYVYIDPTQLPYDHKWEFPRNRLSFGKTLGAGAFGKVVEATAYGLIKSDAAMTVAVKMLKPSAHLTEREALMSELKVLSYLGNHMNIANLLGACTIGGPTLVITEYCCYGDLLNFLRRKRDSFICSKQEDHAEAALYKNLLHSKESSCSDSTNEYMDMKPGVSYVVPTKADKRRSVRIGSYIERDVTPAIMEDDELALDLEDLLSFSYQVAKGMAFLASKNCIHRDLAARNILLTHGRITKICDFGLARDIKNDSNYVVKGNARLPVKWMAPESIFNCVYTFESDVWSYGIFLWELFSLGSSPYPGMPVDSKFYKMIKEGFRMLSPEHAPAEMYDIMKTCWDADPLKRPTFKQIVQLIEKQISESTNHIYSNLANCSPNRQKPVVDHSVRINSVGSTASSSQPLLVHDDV

Structure (SMILES)	IC50 (PDGFRalpha(V561D)) [nM]	IC50 (c-Kit(V654A)) [nM]
O=C1COCCN1c1ccc(-n2cc(-c3cc4cc(F)ccc4[nH]c3=O)nn2)cc1F [A33, 6-fluoro-3-{1-[3-fluoro-4-(3-oxo-morpholin-4-yl)-phenyl]-1H-[1,2,3]triazol-4-yl}-1H-quinolin-2-one]	3	20
O=C1COCCN1c1ccc(-n2cc(-c3cc4ccccc4[nH]c3=O)nn2)cn1 [A34, 3-{1-[6-(3-oxo-morpholin-4-yl)-pyridin-3-yl]-1H-[1,2,3]triazol-4-yl}-1H-quinolin-2-one]	110	5800
Cc1cc(C(=O)N2CCOCC2)ccc1-n1cc(-c2cc3ccccc3[nH]c2=O)nn1 [A35, 3-{1-[2-methyl-4-(morpholine-4-carbonyl)-phenyl]-1H-[1,2,3]triazol-4-yl}-1H-quinolin-2-one]	49	650
CC(C)(O)c1ccc(-n2cc(-c3cc4ccccc4[nH]c3=O)nn2)cc1 [A36, 3-{1-[4-(1-hydroxy-1-methyl-ethyl)-phenyl]-1H-[1,2,3]triazol-4-yl}-1H-quinolin-2-one]	17	29
CNC(=O)c1ccc(-n2cc(-c3cc4ccccc4[nH]c3=O)nn2)cc1F [A39, 2-fluoro-N-methyl-4-[4-(2-oxo-1,2-dihydro-quinolin-3-yl)-[1,2,3]triazol-1-yl]-benzamide]	23	74
O=C(c1ccc(-n2cc(-c3cc4cnccc4[nH]c3=O)nn2)cc1)N1CCOCC1 [A41, 3-{1-[4-(morpholine-4-carbonyl)-phenyl]-1H-[1,2,3]triazol-4-yl}-1H-[1,6]naphthyridin-2-one]	44	240
CN(C)C(=O)c1ccc(-n2cc(-c3cc4ccncc4[nH]c3=O)nn2)cc1 [A42, N,N-dimethyl-4-[4-(2-oxo-1,2-dihydro-[1,7]naphthyridin-3-yl)-[1,2,3]triazol-1-yl]-benzamide]	38	84
O=c1[nH]c2ncccc2cc1-c1cnn(-c2ccccc2)c1 [A43, 3-(1-phenyl-1H-pyrazol-4-yl)-1H-[1,8]naphthyridin-2-one]	170	140
O=c1[nH]c2ccncc2cc1-c1cn(-c2ccc(F)cc2)nn1 [A45, 3-[1-(4-fluoro-phenyl)-1H-[1,2,3]triazol-4-yl]-1H-[1,6]naphthyridin-2-one]	330	1100
O=c1[nH]c2ccncc2cc1-c1cnn(-c2ccccc2)c1 [A46, 3-(1-phenyl-1H-pyrazol-4-yl)-1H-[1,6]naphthyridin-2-one]	150	370
O=C(c1ccc(-n2cc(-c3cc4c(F)cccc4[nH]c3=O)nn2)cc1)N1CCOCC1 [A48, 5-fluoro-3-{1-[4-(morpholine-4-carbonyl)-phenyl]-1H-[1,2,3]triazol-4-yl}-1H-quinolin-2-one]	19	17
O=C(c1ccc(-n2cc(-c3cc4ccccc4[nH]c3=O)nn2)cc1)N1CCNCC1 [A50, 3-{1-[4-(piperazine-1-carbonyl)-phenyl]-1H-[1,2,3]triazol-4-yl}-1H-quinolin-2-one]	14	24
O=C(c1ccc(-n2cc(-c3cc4cc(F)ccc4[nH]c3=O)nn2)cc1)N1CCNCC1 [A53, 6-fluoro-3-{1-[4-(piperazine-1-carbonyl)-phenyl]-1H-[1,2,3]triazol-4-yl}-1H-quinolin-2-one]	9	11
O=c1[nH]c2ccccc2cc1-c1cn(-c2cnc(N3CCNCC3)nc2)nn1 [A54, 3-[1-(2-piperazin-1-yl-pyrimidin-5-yl)-1H-[1,2,3]triazol-4-yl]-1H-quinolin-2-one]	160	490
O=c1[nH]c2ccccc2cc1-c1cn(-c2ccc(N3CCCNCC3)cc2)nn1 [A55, 3-[1-(4-[1,4]diazepan-1-yl-phenyl)-1H-[1,2,3]triazol-4-yl]-1H-quinolin-2-one]	14	14
CN1CCN(C(=O)c2ccc(-n3cc(-c4cc5cc(F)ccc5[nH]c4=O)nn3)cc2)CC1 [A56, 6-fluoro-3-{1-[4-(4-methyl-piperazine-1-carbonyl)-phenyl]-1H-[1,2,3]triazol-4-yl}-1H-quinolin-2-one]	5	7
CN1CCN(C(=O)c2ccc(-n3cc(-c4cc5ccncc5[nH]c4=O)nn3)cc2)CC1 [A63, 3-{1-[4-(4-methyl-piperazine-1-carbonyl)-phenyl]-1H-[1,2,3]triazol-4-yl}-1H-[1,7]naphthyridin-2-one]	40	130
CN1CCN(C(=O)c2ccc(-n3cc(-c4cc5cccnc5[nH]c4=O)nn3)cc2)CC1 [A64, 3-{1-[4-(4-methyl-piperazine-1-carbonyl)-phenyl]-1H-[1,2,3]triazol-4-yl}-1H-[1,8]naphthyridin-2-one]	16	44

The next lines start with the values.

IC50 (PDGFRalpha(V561D)) [nM]	IC50 (c-Kit(V654A)) [nM]	Structure (SMILES)
11	64	O=C1COCCN1c1ccc(-n2cc(-c3cc4ccccc4[nH]c3=O)nn2)cc1F [A32, 3-{1-[3-fluoro-4-(3-oxo-morpholin-4-yl)-phenyl]-1H-[1,2,3]triazol-4-yl}-1H-quinolin-2-one]
9	38	O=C(c1ccc(-n2cc(-c3cc4ccccc4[nH]c3=O)nn2)cc1F)N1CCOCC1 [A37, 3-{1-[3-fluoro-4-(morpholine-4-carbonyl)-phenyl]-1H-[1,2,3]triazol-4-yl}-1H-quinolin-2-one]
580	3200	COc1cc(-n2cc(-c3cc4ccccc4[nH]c3=O)nn2)cc(OC)c1OC [A38, 3-[1-(3,4,5-trimethoxy-phenyl)-1H-[1,2,3]triazol-4-yl]-1H-quinolin-2-one]
7	26	Cc1cc(-n2cc(-c3cc4ccccc4[nH]c3=O)nn2)ccc1C(=O)N1CCOCC1 [A40, 3-{1-[3-methyl-4-(morpholine-4-carbonyl)-phenyl]-1H-[1,2,3]triazol-4-yl}-1H-quinolin-2-one]
7	24	O=C(c1ccc(-n2cc(-c3cc4cccnc4[nH]c3=O)nn2)cc1)N1CCOCC1 [A47, 3-{1-[4-(morpholine-4-carbonyl)-phenyl]-1H-[1,2,3]triazol-4-yl}-1H-[1,8]naphthyridin-2-one]
42	150	O=C1COCCN1c1ccc(-n2cc(-c3cc4ccncc4[nH]c3=O)nn2)cc1 [A49, 3-{1-[4-(3-oxo-morpholin-4-yl)-phenyl]-1H-[1,2,3]triazol-4-yl}-1H-[1,7]naphthyridin-2-one]
22	91	O=C(NC1CCNCC1)c1ccc(-n2cc(-c3cc4cccnc4[nH]c3=O)nn2)cc1 [A51, 4-[4-(2-oxo-1,2-dihydro-[1,8]naphthyridin-3-yl)-[1,2,3]triazol-1-yl]-N-piperidin-4-yl-benzamide]
27	22	O=c1[nH]c2ccccc2cc1-c1cn(-c2ccc(N3CCNCC3)cc2)nn1 [A52, 3-[1-(4-piperazin-1-yl-phenyl)-1H-[1,2,3]triazol-4-yl]-1H-quinolin-2-one]
6	15	CN1CCN(C(=O)c2ccc(-n3cc(-c4cc5ccccc5[nH]c4=O)nn3)cc2)CC1 [A57, 3-{1-[4-(4-methyl-piperazine-1-carbonyl)-phenyl]-1H-[1,2,3]triazol-4-yl}-1H-quinolin-2-one]
21	44	CN1CCC(NC(=O)c2ccc(-n3cc(-c4cc5ccccc5[nH]c4=O)nn3)cc2)CC1 [A58, N-(1-Methyl-piperidin-4-yl)-4-[4-(2-oxo-1,2-dihydro-quinolin-3-yl)-[1,2,3]triazol-1-yl]-benzamide]
46	76	CN1CCC(N(C)C(=O)c2ccc(-n3cc(-c4cc5ccccc5[nH]c4=O)nn3)cc2)CC1 [A59, N-methyl-N-(1-methyl-piperidin-4-yl)-4-[4-(2-oxo-1,2-dihydro-quinolin-3-yl)-[1,2,3]triazol-1-yl]-benzamide]
33	38	CN1CCC(COc2ccc(-n3cc(-c4cc5ccccc5[nH]c4=O)nn3)cc2)CC1 [A60, 3-{1-[4-(1-methyl-piperidin-4-ylmethoxy)-phenyl]-1H-[1,2,3]triazol-4-yl}-1H-quinolin-2-one]
11	29	CN(C)C1CCN(C(=O)c2ccc(-n3cc(-c4cc5ccccc5[nH]c4=O)nn3)cc2)CC1 [A61, 3-{1-[4-(4-dimethylamino-piperidine-1-carbonyl)-phenyl]-1H-[1,2,3]triazol-4-yl}-1H-quinolin-2-one]
46	200	CN1CCN(C(=O)c2ccc(-n3cc(-c4cc5cnccc5[nH]c4=O)nn3)cc2)CC1 [A62, 3-{1-[4-(4-methyl-piperazine-1-carbonyl)-phenyl]-1H-[1,2,3]triazol-4-yl}-1H-[1,6]naphthyridin-2-one]
